Test results published in patent US7973047B2, “Beta-Secretase modulators and methods of use” (Amgen Inc., priority 2010, dated 2011).
Read-outs that look alike come from different tables or passages of the source.

System: Aβ40 in conditioned medium of cells stably expressing Amyloid Precursor Protein (APP)
Assay: BACE cell-based assay: Aβ40 in conditioned medium by sandwich ELISA
Settings: unit inferred, read-out: Cell Assay
How it was run: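 APP-stable cells grown 24 h in DMEM/10% FBS, then exposed to compounds for 24 h in a 10-point dose series starting at 100 or 10 μM, 0.1% DMSO final. Medium Aβ40 measured by pAb40/biotinylated 6E10 sandwich ELISA with Europium time-resolved fluorescence; IC50 from percent inhibition.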

[1] = cell based assay data of Table 4

| IC50 (cell based assay data, Table 4) [nM] | IC50 [1] [nM] | Structure (SMILES) |
| --- | --- | --- |
| 52 |  | CC(=O)N[C@@H](Cc1ccccc1)[C@H](O)CN[C@H]1CC2(CCC2)Oc2nc(F)c(CC(C)C)cc21 [compound 852] |
|  | 64.6 | CC(=O)N[C@@H](Cc1cccc(C#N)c1)[C@H](O)CN[C@H]1CC2(CCC2)Cc2ncc(C)cc21 [compound 542, N-((1S,2R)-1-((3-cyanophenyl)methyl)-2-hydroxy-3-(((5′S)-3′-methyl-5′,8′-dihydro-6′H-spiro[cyclobutane-1,7′-quinolin]-5′-yl)amino)propyl)acetamide] |
|  | 1120 | CN(C)CC(=O)N[C@@H](Cc1cccc(C#N)c1)[C@H](O)CN[C@H]1CC(C)(C)Oc2ccc(Br)cc21 [compound 528] |
|  | 17.1 | COCCC(=O)N[C@@H](Cc1ccc(F)cc1)[C@H](O)CN[C@H]1CC2(CCC2)Oc2ncc(CC(C)(C)C)cc21 [compound 633] |
| 78.7 |  | CC(=O)N[C@@H](CC1CCC1)[C@H](O)CN[C@H]1CC2(CCC2)Oc2ncc(CC(C)(C)C)cc21 [compound 809, N-((1S,2R)-1-(cyclobutylmethyl)-3-(((4′S)-6′-(2,2-dimethylpropyl)-3′,4′-dihydrospiro[cyclobutane-1,2′-pyrano[2,3-b]pyridin]-4′-yl)amino)-2-hydroxypropyl)acetamide] |
|  | 20.2 | CC(=O)N[C@@H](Cc1ccc(F)cc1)[C@H](O)CN[C@H]1CC2(CCC2)Oc2ncc(CC(C)(C)C#N)cc21 [compound 650] |
| 17.7 |  | CC(=O)Nc1ccc2c(c1)[C@@H](NC[C@@H](O)[C@H](Cc1cc(F)cc(F)c1)NC(C)=O)CC1(CCC1)O2 [compound 789] |
| 1650 |  | CC(=O)N[C@@H](Cc1cc(F)cc(F)c1)[C@H](O)CN[C@H]1CC2(CCC2)Oc2ccc(-c3ccn(C)n3)cc21 [compound 784] |
| 137 |  | CC(=O)N[C@@H](Cc1cc(F)cc(F)c1)[C@H](O)CN[C@H]1CC2(CCC2)Oc2ccc(-n3cncn3)cc21 [compound 792] |
|  | ≥ 10000 | CC(=O)N[C@@H](Cc1ccc(Cl)cc1)[C@H](O)CN[C@H]1C[C@@]2(CC[C@H]2C)Oc2ncc(CC(C)(C)C)cc21 [compound 622] |
| 20.3 |  | CC(=O)N[C@@H](Cc1cc(F)cc(Cl)c1)[C@H](O)CN[C@H]1CC2(CCC2)Oc2cnc(CC(C)(C)C)cc21 [compound 750] |
| 151 |  | CC(=O)N[C@@H](Cc1ccc(F)cc1)[C@H](O)CN[C@H]1CC2(CCC2)Oc2nc(F)c(CC(C)C)cc21 [compound 854] |
|  | 7.84 | CC(=O)N[C@@H](Cc1cc(F)cc(F)c1)[C@H](O)CN[C@H]1CC2(CCC2)Oc2ncc(CC3CC3)cc21 [compound 687] |
| 52.5 |  | C=CCC[C@H](NC(C)=O)[C@H](O)CN[C@H]1C[C@]2(C[C@H](C)C2)Oc2ncc(CC(C)(C)C)cc21 [compound 717, N-((1S)-1-((1R)-2-(((1s,3R,4′S)-6′-(2,2-dimethylpropyl)-3-methyl-3′,4′-dihydrospiro[cyclobutane-1,2′-pyrano[2,3-b]pyridin]-4′-yl)amino)-1-hydroxyethyl)-4-penten-1-yl)acetamide] |
|  | 3.94 | CC(=O)N[C@@H](Cc1cccc(F)c1)[C@H](O)CN[C@H]1CC2(CCC2)Oc2ncc(CC(C)(C)F)cc21 [compound 525] |
|  | 2.07 | CC(=O)N[C@@H](Cc1cccc(F)c1)[C@H](O)CN[C@H]1CC2(CCC2)Oc2ncc([C@H](F)C(C)(C)C)cc21 [compound 678] |
|  | 308 | CC(C)(C)Cc1cnc2c(c1)[C@@H](NC[C@@H](O)[C@H](Cc1ccc(F)cc1)NC(=O)CC(F)(F)F)CC1(CCC1)O2 [compound 632] |
|  | 152 | CC(=O)N[C@@H](Cc1ccnc(C(F)(F)F)n1)[C@H](O)CN[C@H]1CC2(CCC2)Oc2ncc(CC(C)(C)C)cc21 [compound 647, N-((1S,2R)-3-(((4′S)-6′-(2,2-dimethylpropyl)-3′,4′-dihydrospiro[cyclobutane-1,2′-pyrano[2,3-b]pyridin]-4′-yl)amino)-2-hydroxy-1-((2-(trifluoromethyl)-4-pyrimidinyl)methyl)propyl)acetamide] |
| 1.55 |  | CC(=O)N[C@@H](Cc1cc(F)cc(F)c1)[C@H](O)CN[C@H]1CC2(CC(C)C2)Oc2ncc(CC(C)(C)C)cc21 (stereo partly shown) [compound 764] |
